The values that follow come from the supplement of paper PMC11061612.

Experiment in all cases: Bliss excess, mean over the matrix (fraction); higher = more synergy
Assay [1] concerns MDA-MB-468 (Breast Carcinoma). The procedure, abridged: (§1)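 Cell lines grown in DMEM/F12 or RPMI with 10% FBS were plated in 1536-well plates and held 24 hours at 37°C, 5% CO2 before 72 hours of exposure to two-drug dose matrices, with DMSO typically at 0.2%. CellTiter-Glo 2.0 luminescence gave viability, which was converted to inhibition. Vehicle wells were set to 0 and blank wells to 1. Combination Emax is the second-highest inhibition in the matrix, and Bliss excess is the observed combination effect minus the expected EA + EB − EA·EB, where EA and EB are the single-agent effects.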

The test system of assay [2] is HMV-II (Melanoma). The method in brief:
as §1

Assay [3] has as its system SU-DHL-6 (B-Cell Non-Hodgkin's Lymphoma). The procedure, abridged: as §1
The subject of assay [4] is K5 (Thyroid Gland Carcinoma). The procedure, abridged: as §1
Assay [5] deals with SW1116 (Colorectal Carcinoma). The method in brief:
as §1

Assay [6] concerns HO-1-u-1 (Oral Cavity Carcinoma). The procedure, abridged:
as §1

Assay [7] deals with SUP-T1 (T-Lymphoblastic Leukemia). The method in brief:
as §1

Assay [8] deals with 8305C (Thyroid Gland Carcinoma). The method in brief: as §1
The test system of assay [9] is RPMI-6666 (Non-Cancerous). The method in brief:
as §1

For assay [10], the system named is KARPAS-231 (B-Cell Non-Hodgkin's Lymphoma). The method in brief: as §1
The subject of assay [11] is HARA (Squamous Cell Lung Carcinoma). The procedure, abridged: as §1
For assay [12], the system named is CAPAN-1 (Pancreatic Carcinoma). The procedure, abridged:
as §1

The test system of assay [13] is Hs-633T (Other Solid Carcinomas). The method in brief:
as §1

The test system of assay [14] is COLO-829 (Melanoma). The procedure, abridged:
as §1

Assay [15] concerns NCI-H69 (Small Cell Lung Carcinoma). The procedure, abridged: as §1
For assay [16], the system named is Mewo (Melanoma). The method in brief:
as §1

The test system of assay [17] is HDLM-2 (Hodgkin's Lymphoma). The procedure, abridged:
as §1

Assay [18] deals with NCI-H2461 (Mesothelioma). The method in brief:
as §1

In assay [19] the test system is CAL-54 (Kidney Carcinoma). The procedure, abridged: as §1
Assay [20] relates to SK-OV-3 (Ovarian Carcinoma). The procedure, abridged:
as §1

Regarding `CC(=O)c1c(C)c2cnc(Nc3ccc(N4CCNCC4)cn3)nc2n(C2CCCC2)c1=O` [Palbociclib] + Cn1cnc2c(F)c(Nc3ccc(Br)cc3Cl)c(C(=O)NOCCO)cc21 [Selumetinib] (first compound max 10 µM, 7x7, partner max 10 µM), the Bliss excess in assay [1] is -0.0555; in [2], -0.0203; in assay [3], 0.167; in assay [4] it was -0.0341; in assay [5] it was -0.0189; in assay [6], 0.0772. Moreover, the Bliss excess in assay [7] is -0.0478; in [8], 0.0123; in assay [9], -0.0324; in [10], -0.134; in [11], 0.0219; in assay [12], -0.0741. Further, the Bliss excess is 0.0767 in assay [13]; -0.0772 in assay [14]; -0.0071 in [15]; -0.0844 in assay [16]; -0.0362 in assay [17]; -0.0034 in assay [18]. Besides, the Bliss excess in [19] was -0.0125; in [20], -0.0419.
For `CC1(C)CCC(CN2CCN(c3ccc(C(=O)NS(=O)(=O)c4ccc(NCC5CCOCC5)c([N+](=O)[O-])c4)c(Oc4cnc5[nH]ccc5c4)c3)CC2)=C(c2ccc(Cl)cc2)C1` [Venetoclax] + C1CN(CCC1(C(=O)N[C@@H](CCO)C2=CC=C(C=C2)Cl)N)C3=NC=NC4=C3C=CN4 [Capivasertib] (first compound max 1 µM, 7x7, partner max 3 µM), the Bliss excess in assay [1] is -0.0435; in assay [2] it was -0.0444; in [3], 0.0537; in assay [4], -0.0618; in assay [5], -0.0491; in [6] it was -0.052. In addition, the Bliss excess in assay [7] was -0.0641; in [8], 0.0038; in [9], 0.0217; in assay [10], -0.182; in assay [11], -0.009; in assay [12], -0.0473. The Bliss excess was -0.0185 in [13]; -0.045 in [14]; 0.0185 in assay [15]; -0.0093 in [16]; -0.0166 in [17]; -0.0184 in assay [18]. Moreover, the Bliss excess was -0.027 in assay [19] and -0.0577 in assay [20].
Consider `CN(C)CCCOc1ccc(-c2ccc3ncc4c(c3c2)n(C2CCOCC2)c(=O)n4C)cn1` [AZD0156] + C[C@@H]1COCCN1C2=NC(=NC(=C2)C3(CC3)[S@](=N)(=O)C)C4=C5C=CNC5=NC=C4 [AZD6738] (first compound max 1 µM, 7x7, partner max 10 µM), for which the Bliss excess is -0.011 in [1]; -0.0018 in assay [2]; 0.0136 in assay [3]; -0.0074 in assay [4]; -0.034 in assay [5]; 0.0189 in assay [6]. Besides, the Bliss excess in assay [7] is -0.0344; in assay [8], -0.0765; in assay [9], -0.0187; in assay [10], 0.0732; in assay [11], 0.0257; in [12], -0.0775. The Bliss excess was 0.0537 in assay [13]; -0.0327 in [14]; -0.0233 in [15]; -0.0365 in assay [16]; -0.0448 in assay [17]; -0.0664 in [18]. Moreover, the Bliss excess in [19] was -0.0136; in [20], -0.015.
In the case of `C=CCn1c(=O)c2cnc(Nc3ccc(N4CCN(C)CC4)cc3)nc2n1-c1cccc(C(C)(C)O)n1` [AZD1775] + O=C(c1cc(Cc2n[nH]c(=O)c3ccccc23)ccc1F)N1CCN(C(=O)C2CC2)CC1 [Olaparib] (first compound max 1 µM, partner max 10 µM), the Bliss excess was -0.0449 in [1]; -0.0279 in assay [2]; -0.0222 in [3]; -0.0175 in [4]; -0.0069 in assay [5]; -0.0521 in [6]. The Bliss excess in assay [7] was -0.017; in assay [8], -0.0762; in [9], -0.0373; in assay [10], -0.0554; in assay [11] it was -0.0325; in assay [12] it was -0.0123. Besides, the Bliss excess is -0.0188 in assay [13]; -0.0137 in [14]; -0.0166 in assay [15]; -0.0237 in [16]; -0.0536 in assay [17]; -0.0561 in assay [18]. Besides, the Bliss excess in [19] was -0.0341; in [20], -0.0465.
With `NC1(C(=O)N[C@@H](CCO)c2ccc(Cl)cc2)CCN(c2ncnc3[nH]ccc23)CC1` [Capivasertib] + Cn1cnc2c(F)c(Nc3ccc(Br)cc3Cl)c(C(=O)NOCCO)cc21 [Selumetinib] (first compound max 10 µM, 7x7, partner max 10 µM), the Bliss excess in assay [1] is 0.0736; in assay [2], -0.005; in assay [3], 0.0255; in [4], 0.0944; in [5] it was 0.0203; in assay [6] it was 0.126. For the same compound, the Bliss excess in assay [7] is 0.0063; in assay [8], -0.0212; in assay [9], 0.0604; in assay [10], -0.0465; in [11], -0.0186; in assay [12], -0.0081. Also, the Bliss excess in assay [13] was 0.0259; in [14] it was 0.0367; in assay [15], -0.0198; in assay [16], 0.0069; in [17], -0.0118; in assay [18], -0.0393. Besides, the Bliss excess was 0.0079 in assay [19] and -0.0629 in [20].
For the compound `CC1(C)CCC(CN2CCN(c3ccc(C(=O)NS(=O)(=O)c4ccc(NCC5CCOCC5)c([N+](=O)[O-])c4)c(Oc4cnc5[nH]ccc5c4)c3)CC2)=C(c2ccc(Cl)cc2)C1` [Venetoclax] + CCN(CCO)CCCOc1ccc2c(Nc3cc(CC(=O)Nc4cccc(F)c4)[nH]n3)ncnc2c1 [AZD2811] (first compound max 1 µM, 7x7, partner max 1 µM), the Bliss excess in assay [1] is -0.086; in [2], 0.0208; in assay [3], 0.0684; in assay [4], -0.0231; in assay [5], -0.046; in assay [6], -0.0297. The Bliss excess in [7] is -0.0012; in assay [8], -0.0038; in assay [9], 0.189; in assay [10], -0.0484; in assay [11] it was 0.0345; in [12], -0.042. Also, the Bliss excess was -0.0086 in assay [13]; -0.0359 in [14]; 0.0928 in assay [15]; -0.0193 in assay [16]; 0.106 in assay [17]; -0.0587 in [18]. The figures for the Bliss excess in assay [19] and in assay [20] were -0.0105 and -0.0401, respectively.
